Calls of active or inactive are those of the source. No cut-off for these calls is given here.
Legend:
[1] = target: T1, C-X-C chemokine receptor type 4 (Homo sapiens, UniProt P61073); test: Displacement of 12G5 mAb from CXCR4 (unknown origin) expressed in CHO cells incubated for 40 mins by spectrophotometric method; assay type: cell-based
[2] = target: T1, C-X-C chemokine receptor type 4; test: Antagonist activity against CXCR4 in human SUP-T1 cells assessed as inhibition of SDF-1alpha-induced intracellular calcium mobilization by Fluo-4AM dye based fluorescence analysis; assay type: cell-based; settings: filed as antagonist, dose 0.01-10 µM
[3] = target: T1, C-X-C chemokine receptor type 4; test: Antagonist activity against CXCR4 in human SUP-T1 cells assessed as inhibition of SDF-1alpha-induced intracellular calcium mobilization at 10 uM by Fluo-4AM dye based fluorescence analysis; assay type: cell-based; settings: filed as antagonist
[4] = target: T1, C-X-C chemokine receptor type 4; test: Antagonist activity against CXCR4 in human SUP-T1 cells assessed as inhibition of SDF-1alpha-induced cell migration preincubated with cells for 30 mins followed by incubation with SDF-1alpha for 3 hrs by CellTiter-96 reagent based transwell assay; settings: filed as antagonist, time 210.0 min
[5] = target: T1, C-X-C chemokine receptor type 4; test: Antagonist activity against CXCR4 in human SUP-T1 cells assessed as inhibition of SDF-1alpha-induced cell migration at 10 uM preincubated with cells for 30 mins followed by incubation with SDF-1alpha for 3 hrs by CellTiter-96 reagent based transwell assay; settings: filed as antagonist, time 210.0 min
[6] = target: T1, C-X-C chemokine receptor type 4; test: Antagonist activity against EGFP-tagged CXCR4 (unknown origin) transfected in CHO cells assessed as inhibition of SDF-1alpha-induced receptor internalization at 0.01 to 10 uM preincubated for 10 mins followed by SDF-1alpha addition by confocal microscopy; assay type: cell-based; settings: filed as antagonist, dose 0.01-10 µM
[7] = target: T1, C-X-C chemokine receptor type 4; test: Antagonist activity against EGFP-tagged CXCR4 (unknown origin) transfected in CHO cells assessed as inhibition of SDF-1alpha-induced receptor internalization at 10 uM preincubated for 10 mins followed by SDF-1alpha addition by confocal microscopy; assay type: cell-based; settings: filed as antagonist
[8] = system: Human immunodeficiency virus 1; test: Antiviral activity against HIV-1 X4 NL4-3 infected in human PBMC assessed as inhibition of viral replication by measuring reduction in p24 antigen level at 10 uM measured after 5 days by ELISA; assay type: functional, organism-based; settings: time 5.0 day
[9] = system: Human immunodeficiency virus 1; test: Antiviral activity against HIV-1 R5 Bal-6 infected in human PBMC assessed as inhibition of viral replication by measuring reduction in p24 antigen level at 10 uM measured after 5 days by ELISA; assay type: functional, organism-based; settings: time 5.0 day
[10] = Cytotoxicity against human PBMC assessed as reduction in cell viability at 0.016 to 10 uM incubated for 5 days by CellTiter-Blue assay; assay type: toxicity, cell-based; settings: 120 h, dose 0.016-10 µM, time 5 day
[11] = system: C-X-C chemokine receptor type 4 (Homo sapiens), P61073 [F87A]; test: Displacement of 12G5 mAb from CXCR4 F87A mutant (unknown origin) expressed in CHO cells at 200 nM incubated for 40 mins by spectrophotometric method; assay type: cell-based
[12] = system: C-X-C chemokine receptor type 4 (Homo sapiens), P61073 [W94A]; test: Displacement of 12G5 mAb from CXCR4 W94A mutant (unknown origin) expressed in CHO cells at 200 nM incubated for 40 mins by spectrophotometric method; assay type: cell-based
[13] = system: C-X-C chemokine receptor type 4 (Homo sapiens), P61073 [N119A]; test: Displacement of 12G5 mAb from CXCR4 N119A mutant (unknown origin) expressed in CHO cells at 200 nM incubated for 40 mins by spectrophotometric method; assay type: cell-based
[14] = system: C-X-C chemokine receptor type 4 (Homo sapiens), P61073 [H113A]; test: Displacement of 12G5 mAb from CXCR4 H113A mutant (unknown origin) expressed in CHO cells at 200 nM incubated for 40 mins by spectrophotometric method; assay type: cell-based
[15] = system: C-X-C chemokine receptor type 4 (Homo sapiens), P61073 [W161A]; test: Displacement of 12G5 mAb from CXCR4 W161A mutant (unknown origin) expressed in CHO cells at 200 nM incubated for 40 mins by spectrophotometric method; assay type: cell-based
[16] = system: C-X-C chemokine receptor type 4 (Homo sapiens), P61073 [D193A]; test: Displacement of 12G5 mAb from CXCR4 D193A mutant (unknown origin) expressed in CHO cells at 200 nM incubated for 40 mins by spectrophotometric method; assay type: cell-based
[17] = system: C-X-C chemokine receptor type 4 (Homo sapiens), P61073 [W195A]; test: Displacement of 12G5 mAb from CXCR4 W195A mutant (unknown origin) expressed in CHO cells at 200 nM incubated for 40 mins by spectrophotometric method; assay type: cell-based
[18] = system: C-X-C chemokine receptor type 4 (Homo sapiens), P61073 [D262N]; test: Displacement of 12G5 mAb from CXCR4 D262N mutant (unknown origin) expressed in CHO cells at 200 nM incubated for 40 mins by spectrophotometric method; assay type: cell-based
[19] = system: C-X-C chemokine receptor type 4 (Homo sapiens), P61073 [E288A]; test: Displacement of 12G5 mAb from CXCR4 E288A mutant (unknown origin) expressed in CHO cells at 200 nM incubated for 40 mins by spectrophotometric method; assay type: cell-based
[20] = system: C-X-C chemokine receptor type 4 (Homo sapiens), P61073 [E288D]; test: Displacement of 12G5 mAb from CXCR4 E288D mutant (unknown origin) expressed in CHO cells at 200 nM incubated for 40 mins by spectrophotometric method; assay type: cell-based
[21] = system: C-X-C chemokine receptor type 4 (Homo sapiens), P61073 [Y45A]; test: Displacement of 12G5 mAb from CXCR4 Y45A mutant (unknown origin) expressed in CHO cells at 200 nM incubated for 40 mins by spectrophotometric method; assay type: cell-based; settings: filed as antagonist
[22] = system: C-X-C chemokine receptor type 4 (Homo sapiens), P61073 [T117A]; test: Displacement of 12G5 mAb from CXCR4 T117A mutant (unknown origin) expressed in CHO cells at 200 nM incubated for 40 mins by spectrophotometric method; assay type: cell-based; settings: filed as antagonist
[23] = system: C-X-C chemokine receptor type 4 (Homo sapiens), P61073 [D171A]; test: Displacement of 12G5 mAb from CXCR4 D171A mutant (unknown origin) expressed in CHO cells at 200 nM incubated for 40 mins by spectrophotometric method; assay type: cell-based; settings: filed as antagonist
[24] = system: Human immunodeficiency virus 1; test: Antiviral activity against HIV-1 X4 NL4-3 infected in human PBMC assessed as inhibition of viral replication by measuring reduction in p24 antigen level measured after 5 days by ELISA; assay type: functional, organism-based; settings: Human immunodeficiency virus 1, X4 NL4-3, PBMC, 120 h
[25] = system: Human immunodeficiency virus 1; test: Antiviral activity against HIV-1 R5 Bal-6 infected in human PBMC assessed as inhibition of viral replication by measuring reduction in p24 antigen level at 0.1 to 10 uM measured after 5 days by ELISA; assay type: functional, organism-based; settings: dose 0.1-10 µM, time 5.0 day

T1 sequence (P61073 whole entry): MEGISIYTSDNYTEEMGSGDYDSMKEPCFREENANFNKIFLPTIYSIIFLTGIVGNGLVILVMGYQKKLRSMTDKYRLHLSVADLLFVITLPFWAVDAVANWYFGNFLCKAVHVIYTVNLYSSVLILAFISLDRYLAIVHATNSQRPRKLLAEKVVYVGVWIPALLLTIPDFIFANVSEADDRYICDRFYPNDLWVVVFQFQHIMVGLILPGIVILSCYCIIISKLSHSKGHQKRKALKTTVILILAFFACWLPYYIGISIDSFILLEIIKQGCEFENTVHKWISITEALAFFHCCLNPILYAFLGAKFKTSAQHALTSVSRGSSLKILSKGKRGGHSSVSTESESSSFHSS
C-X-C chemokine receptor type 4 (Homo sapiens), P61073 [W94A], sequence (P61073 whole entry W94A): as the sequence (P61073 whole entry) above, with W94A counted along it
C-X-C chemokine receptor type 4 (Homo sapiens), P61073 [D262N], sequence (P61073 whole entry D262N): as the sequence (P61073 whole entry) above, with D262N counted along it
C-X-C chemokine receptor type 4 (Homo sapiens), P61073 [W161A], sequence (P61073 whole entry W161A): as the sequence (P61073 whole entry) above, with W161A counted along it
C-X-C chemokine receptor type 4 (Homo sapiens), P61073 [F87A], sequence (P61073 whole entry F87A): as the sequence (P61073 whole entry) above, with F87A counted along it
C-X-C chemokine receptor type 4 (Homo sapiens), P61073 [W195A], sequence (P61073 whole entry W195A): as the sequence (P61073 whole entry) above, with W195A counted along it
C-X-C chemokine receptor type 4 (Homo sapiens), P61073 [E288A], sequence (P61073 whole entry E288A): as the sequence (P61073 whole entry) above, with E288A counted along it
C-X-C chemokine receptor type 4 (Homo sapiens), P61073 [T117A], sequence (P61073 whole entry T117A): as the sequence (P61073 whole entry) above, with T117A counted along it
C-X-C chemokine receptor type 4 (Homo sapiens), P61073 [Y45A], sequence (P61073 whole entry Y45A): as the sequence (P61073 whole entry) above, with Y45A counted along it
C-X-C chemokine receptor type 4 (Homo sapiens), P61073 [D171A], sequence (P61073 whole entry D171A): as the sequence (P61073 whole entry) above, with D171A counted along it
C-X-C chemokine receptor type 4 (Homo sapiens), P61073 [D193A], sequence (P61073 whole entry D193A): as the sequence (P61073 whole entry) above, with D193A counted along it
C-X-C chemokine receptor type 4 (Homo sapiens), P61073 [H113A], sequence (P61073 whole entry H113A): as the sequence (P61073 whole entry) above, with H113A counted along it
C-X-C chemokine receptor type 4 (Homo sapiens), P61073 [N119A], sequence (P61073 whole entry N119A): as the sequence (P61073 whole entry) above, with N119A counted along it
C-X-C chemokine receptor type 4 (Homo sapiens), P61073 [E288D], sequence (P61073 whole entry E288D): as the sequence (P61073 whole entry) above, with E288D counted along it

**Q.** What does the source list for `CC(C)C[C@@H](N)C(=O)NCC(=O)N[C@H](C)C(=O)N[C@H](CO)C(=O)N[C@H](Cc1c[nH]c2ccccc12)C(=O)N[C@H](Cc1cnc[nH]1)C(=O)N[C@H](CCCNC(=N)N)C(=O)N1CCC[C@@H]1C(=O)N[C@H](CC(=O)O)C(=O)N[C@H](CCCCN)C(=O)N[C@H](CCCCN)C(=O)N[C@H](CCCNC(=N)N)C(=O)N(CCCCCC(=O)O)[C@H](CCCCN)C(=O)N[C@H](CCCNC(=N)N)C(=O)N[C@H](CCCCN)C(=O)N[C@H](CCC(N)=O)C(=O)N[C@H](CCCNC(=N)N)C(=O)NCC(=O)N1CCC[C@@H]1C(=O)NCC(=O)N[C@H](CCCNC(=N)N)C(=O)N[C@H](C)C(=O)N[C@H](Cc1ccccc1)C(N)=O`?
**A.** IC50 [1]: 43.4 nM; inhibition [2]: Dose-Dependent Effect; inhibition [3]: 100%; inhibition [4]: Dose-Dependent Effect; inhibition [5]: 100%; inhibition [6]: Active; inhibition [7]: 100%; Activity [8]: Active; Activity [9]: Active; Activity [10]: Non-Toxic; inhibition [11]: inactive; inhibition [12]: inactive; inhibition [13]: inactive; inhibition [14]: inactive; inhibition [15]: inactive; inhibition [16]: inactive; inhibition [17]: inactive; inhibition [18]: inactive; inhibition [19]: inactive; inhibition [20]: inactive; inhibition [21]: Active; inhibition [22]: Active; inhibition [23]: Active

**Q.** Which IC50 [1] does the source give for `CC(C)C[C@@H](N)C(=O)NCC(=O)N[C@H](C)C(=O)N[C@H](CO)C(=O)N[C@H](Cc1c[nH]c2ccccc12)C(=O)N[C@H](Cc1cnc[nH]1)C(=O)N[C@H](CCCNC(=N)N)C(=O)N1CCC[C@@H]1C(=O)N[C@H](CC(=O)O)C(=O)N[C@H](CCCCN)C(=O)N[C@H](CCCCN)C(=O)N[C@H](CCCNC(=N)N)C(=O)N(CCCCCC(=O)O)[C@H](CCCCN[C@@H](CS)C(=O)N[C@@H](C(=O)N[C@H](CCCNC(=N)N)C(=O)N1CCC[C@@H]1C(=O)N[C@H](CC(N)=O)C(=O)N[C@H](CC(N)=O)C(=O)N[C@H](CC(N)=O)C(=O)N[C@@H](C(=O)N[C@H](CCCCN)C(=O)N[C@H](CCCNC(=N)N)C(N)=O)[C@@H](C)O)[C@@H](C)O)C(N)=O` here?
**A.** Its IC50 is 26.8 nM.

**Q.** And the Activity [8]?
**A.** The Activity was “Active”.

**Q.** What about the IC50 [24] of the same compound?
**A.** The IC50 was 10900 nM.

**Q.** What about the Activity [25] of the same compound?
**A.** The Activity was “inactive”.

**Q.** And the Activity [10]?
**A.** The Activity was “Non-Toxic”.
